Legend:
Plasmin = biological target: T1, Plasmin (Homo sapiens, UniProt P00747); test: Inhibition of human proteases: plasmin; type: biochemical
T1 construct: purchased Anaspec
Experimental: (§1) In an effort to circumvent similar toxicities, new protease inhibitors were evaluated for inhibition of a panel of important human proteases. The enzymes tested are Elastase (Neutrophil), Plasmin, Thrombin, and Cathepsin S.
(§2) Plasmin and Thrombin(Sensolyte RH110 Plasmin Activity Assay Kit and Sensolyte Thrombin Activity Assay Kit (Anaspec)): Reactions were conducted in a sample volume of 100 μL per well in a black 96 well plate. Protocol A was followed from the kit insert where the 2× assay buffer was diluted 1:1 with deionized water. Included in each assay were a positive control (diluted enzyme and no test compound), inhibitor control (contains diluted enzyme and plasmin inhibitor; component E from the kit or thrombin inhibitor; N-α-NAPAP synthetic inhibitor) and substrate control (assay buffer and substrate). Vehicle and autofluorescence controls were also performed. Drug dilutions were added (10 μL) at 10× concentrations in assay buffer. The enzyme was added at 40 μL/well at a concentration of 0.25 μg/mL (plasmin) and 1 μg/mL (thrombin) to all wells except the substrate control. Finally, 50 μL assay buffer containing substrate was added to each well. […] The fluorescence intensity was read on the Victor 3 plate reader at Ex/Em=490 nm/520 nm. […] Results are shown as substrate control adjusted percentages of maximum absorbance, which was given by the positive control.

[1] = biological target: Hepatitis C Virus NS3/4A protease D168V (Hepatitis C virus genotype 1b, UniProt O92972, D1194V); test: biochemical
Hepatitis C Virus NS3/4A protease D168V (Hepatitis C virus genotype 1b, UniProt O92972, D1194V), sequence (O92972 1027-1657 D1194V): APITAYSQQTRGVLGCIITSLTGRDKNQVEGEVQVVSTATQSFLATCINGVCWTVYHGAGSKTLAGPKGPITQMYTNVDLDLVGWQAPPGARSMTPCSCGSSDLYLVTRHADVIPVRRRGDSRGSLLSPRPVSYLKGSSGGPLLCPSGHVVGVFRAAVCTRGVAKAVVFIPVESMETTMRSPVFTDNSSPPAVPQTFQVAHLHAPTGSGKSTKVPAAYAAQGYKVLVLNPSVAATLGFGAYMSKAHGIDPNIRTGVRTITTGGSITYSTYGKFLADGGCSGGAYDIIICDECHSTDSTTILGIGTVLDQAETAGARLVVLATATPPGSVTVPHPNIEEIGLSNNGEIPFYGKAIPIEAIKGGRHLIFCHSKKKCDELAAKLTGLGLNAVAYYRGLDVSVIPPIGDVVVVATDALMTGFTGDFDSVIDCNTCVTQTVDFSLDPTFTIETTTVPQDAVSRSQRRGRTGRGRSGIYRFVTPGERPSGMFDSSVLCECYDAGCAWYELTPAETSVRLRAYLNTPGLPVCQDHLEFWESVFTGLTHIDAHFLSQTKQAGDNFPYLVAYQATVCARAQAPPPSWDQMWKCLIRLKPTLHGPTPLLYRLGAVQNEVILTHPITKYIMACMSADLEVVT
Hepatitis C Virus NS3/4A protease D168V (Hepatitis C virus genotype 1b, UniProt O92972, D1194V), sequence (O92972 1658-1711 partner limits assumed): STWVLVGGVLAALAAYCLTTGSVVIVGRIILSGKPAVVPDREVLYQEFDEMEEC

[2] = tested on: Hepatitis C Virus NS3/4A protease D168V; test: biochemical; conditions: D168V vs Wild Type
Kallikrein = test: Inhibition of human proteases: kallikrein; type: biochemical
Chymase = Chymase (Homo sapiens, UniProt P23946); test: Inhibition of human proteases: chymase; type: biochemical
Chymase, sequence (P23946 22-247): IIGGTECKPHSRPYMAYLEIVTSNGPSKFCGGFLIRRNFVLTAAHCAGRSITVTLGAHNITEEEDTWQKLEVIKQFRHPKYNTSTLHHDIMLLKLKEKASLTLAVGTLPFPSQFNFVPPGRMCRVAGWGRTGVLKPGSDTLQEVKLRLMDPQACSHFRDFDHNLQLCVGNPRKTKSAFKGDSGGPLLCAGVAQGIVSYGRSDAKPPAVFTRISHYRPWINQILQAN

[3] = tested on: HCV replicon RNA in Huh 7 Clone B cells; test: HCV replicon assay (replicon RNA, real time RT-PCR); type: cell-based; conditions: for DCt HCV / HCV (% inhibition of replicon RNA): five days
Experimental: Following five days incubation (37° C., 5% CO2), total cellular RNA was isolated by using versaGene RNA purification kit from Gentra. Replicon RNA and an internal control (TaqMan rRNA control reagents, Applied Biosystems) were amplified in a single step multiplex Real Time RT-PCR Assay. The antiviral effectiveness of the compounds was calculated by subtracting the threshold RT-PCR cycle of the test compound from the threshold RT-PCR cycle of the no-drug control (ΔCt HCV). A ΔCt of 3.3 equals a 1-log reduction (equal to 90% less starting material) in Replicon RNA levels. The cytotoxicity of the compounds was also calculated by using the ΔCt rRNA values. (2′-Me-C) was used as the control. To determine EC90 and IC50 values^2, ΔCt: values were first converted into fraction of starting material^3 and then were used to calculate the % inhibition.

[4] = tested on: Hepatitis C Virus NS3/4A protease A156S; test: biochemical; conditions: A156S vs Wild Type
[5] = biological target: Hepatitis C Virus NS3/4A protease A156S (Hepatitis C virus genotype 1b, UniProt O92972, A1182S); test: biochemical
Hepatitis C Virus NS3/4A protease A156S (Hepatitis C virus genotype 1b, UniProt O92972, A1182S), sequence (O92972 1027-1657 A1182S): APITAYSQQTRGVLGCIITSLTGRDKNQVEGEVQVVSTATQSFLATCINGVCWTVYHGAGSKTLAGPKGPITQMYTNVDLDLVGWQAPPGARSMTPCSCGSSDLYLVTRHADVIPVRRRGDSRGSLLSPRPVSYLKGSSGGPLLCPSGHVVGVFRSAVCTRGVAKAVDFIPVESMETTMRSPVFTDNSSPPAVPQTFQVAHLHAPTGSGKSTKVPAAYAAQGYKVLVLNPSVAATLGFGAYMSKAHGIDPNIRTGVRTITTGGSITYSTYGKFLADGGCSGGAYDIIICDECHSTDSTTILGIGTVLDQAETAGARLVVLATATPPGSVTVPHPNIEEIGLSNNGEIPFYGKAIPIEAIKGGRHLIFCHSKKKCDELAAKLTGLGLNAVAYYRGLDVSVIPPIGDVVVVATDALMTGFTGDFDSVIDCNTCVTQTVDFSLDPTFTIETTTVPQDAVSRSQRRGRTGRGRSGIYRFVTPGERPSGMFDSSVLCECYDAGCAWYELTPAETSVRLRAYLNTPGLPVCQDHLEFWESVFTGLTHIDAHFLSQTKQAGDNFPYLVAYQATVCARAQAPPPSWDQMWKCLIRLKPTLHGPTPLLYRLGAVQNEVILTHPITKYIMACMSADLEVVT
Hepatitis C Virus NS3/4A protease A156S (Hepatitis C virus genotype 1b, UniProt O92972, A1182S), sequence (O92972 1658-1711 partner limits assumed): as the sequence (O92972 1658-1711 partner limits assumed) above

Thrombin = biological target: T2, Thrombin (Homo sapiens, UniProt P00734); test: Inhibition of human proteases: thrombin; type: biochemical
T2 construct: purchased Anaspec
Experimental: as §1, §2

[6] = tested on: Hepatitis C Virus NS3/4A protease A156T; test: biochemical; conditions: A156T vs Wild Type
[7] = biological target: Hepatitis C Virus NS3/4A protease A156T (Hepatitis C virus genotype 1b, UniProt O92972, A1182T); test: biochemical
Hepatitis C Virus NS3/4A protease A156T (Hepatitis C virus genotype 1b, UniProt O92972, A1182T), sequence (O92972 1027-1657 A1182T): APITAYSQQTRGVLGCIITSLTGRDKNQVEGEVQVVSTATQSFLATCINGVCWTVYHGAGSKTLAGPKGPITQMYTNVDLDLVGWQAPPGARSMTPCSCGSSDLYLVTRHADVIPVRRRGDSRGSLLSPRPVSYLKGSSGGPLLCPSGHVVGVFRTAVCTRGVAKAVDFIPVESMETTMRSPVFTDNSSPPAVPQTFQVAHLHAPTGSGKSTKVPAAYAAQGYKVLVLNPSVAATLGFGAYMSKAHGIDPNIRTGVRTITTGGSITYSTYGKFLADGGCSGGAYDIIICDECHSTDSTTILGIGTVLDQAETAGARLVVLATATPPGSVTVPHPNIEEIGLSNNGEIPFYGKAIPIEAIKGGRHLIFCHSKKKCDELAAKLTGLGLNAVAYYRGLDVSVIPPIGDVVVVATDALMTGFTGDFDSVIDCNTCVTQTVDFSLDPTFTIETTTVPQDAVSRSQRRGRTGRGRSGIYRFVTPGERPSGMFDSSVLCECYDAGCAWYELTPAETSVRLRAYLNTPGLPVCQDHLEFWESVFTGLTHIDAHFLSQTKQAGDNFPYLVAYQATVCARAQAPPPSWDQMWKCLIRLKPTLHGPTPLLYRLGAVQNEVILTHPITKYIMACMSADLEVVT
Hepatitis C Virus NS3/4A protease A156T (Hepatitis C virus genotype 1b, UniProt O92972, A1182T), sequence (O92972 1658-1711 partner limits assumed): as the sequence (O92972 1658-1711 partner limits assumed) above

[8] = biological target: T3, Elastase (Human Neutrophil) (Homo sapiens, UniProt P08246); test: Inhibition of human proteases: elastase; type: biochemical
T3 construct: purchased Athens Research and Technology 16-14-051200
T3 sequence (P08246 30-267): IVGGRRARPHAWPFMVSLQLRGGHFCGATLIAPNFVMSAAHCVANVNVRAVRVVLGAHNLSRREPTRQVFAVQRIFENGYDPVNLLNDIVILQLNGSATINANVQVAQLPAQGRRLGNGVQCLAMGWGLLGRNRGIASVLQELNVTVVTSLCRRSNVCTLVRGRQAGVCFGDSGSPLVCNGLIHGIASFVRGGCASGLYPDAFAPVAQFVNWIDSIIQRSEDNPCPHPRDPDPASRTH
Experimental: as §1
Elastase (Human Neutrophil (Cat #16-14-051200 Athens Research and Technology, Athens Ga.)): Reactions were conducted in a sample volume of 100 μL per well in a clear 96 well plate. A 2× assay buffer was made containing 200 mM Tris-HCl (pH 7.5), 150 mM NaCl and 50% glycerol. For each sample 50 μL 2× assay buffer was added to each well. The substrate (MeOSuc-AAPV-pNA, Chromogenic Substrate, Cat #P-213, Enzo Life Sciences, Plymouth Meeting, Pa.; 50 mM stock in DMSO) was added to a final concentration of 1 mM. The drug dilutions were added (25 μL) at 4× concentrations in water. Finally, a mixture was made of 1 μL elastase and 22 μL water for each sample and 23 μL was added to each well. The samples were incubated at room temperature for 30 min. The absorbance at 405 nm was read on the Victor 3 plate reader. All samples were tested in duplicate. Results are shown as blank adjusted (no Elastase) percentages of maximum absorbance, which was given by a no inhibitor control.

[9] = biological target: Hepatitis C Virus NS3/4A protease T54A (Hepatitis C virus genotype 1b, UniProt O92972, T1080A); test: biochemical
Hepatitis C Virus NS3/4A protease T54A (Hepatitis C virus genotype 1b, UniProt O92972, T1080A), sequence (O92972 1027-1657 T1080A): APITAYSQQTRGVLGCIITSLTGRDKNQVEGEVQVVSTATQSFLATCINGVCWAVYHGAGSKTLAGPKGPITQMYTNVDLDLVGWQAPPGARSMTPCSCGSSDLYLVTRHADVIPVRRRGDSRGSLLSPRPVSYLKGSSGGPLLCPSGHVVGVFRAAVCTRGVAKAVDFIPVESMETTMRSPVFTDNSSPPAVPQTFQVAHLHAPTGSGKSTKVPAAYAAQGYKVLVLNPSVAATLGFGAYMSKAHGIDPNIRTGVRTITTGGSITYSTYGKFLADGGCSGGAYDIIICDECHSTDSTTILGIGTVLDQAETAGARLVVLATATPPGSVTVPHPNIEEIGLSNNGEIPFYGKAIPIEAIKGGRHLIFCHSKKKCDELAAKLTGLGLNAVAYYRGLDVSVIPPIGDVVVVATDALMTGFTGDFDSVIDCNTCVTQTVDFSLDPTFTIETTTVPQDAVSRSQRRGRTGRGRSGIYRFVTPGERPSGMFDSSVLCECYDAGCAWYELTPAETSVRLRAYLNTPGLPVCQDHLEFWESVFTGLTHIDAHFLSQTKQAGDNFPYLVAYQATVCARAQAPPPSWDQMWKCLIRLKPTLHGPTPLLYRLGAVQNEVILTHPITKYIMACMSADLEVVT
Hepatitis C Virus NS3/4A protease T54A (Hepatitis C virus genotype 1b, UniProt O92972, T1080A), sequence (O92972 1658-1711 partner limits assumed): as the sequence (O92972 1658-1711 partner limits assumed) above

[10] = tested on: Hepatitis C Virus NS3/4A protease T54A; test: biochemical; conditions: T54A vs Wild Type
[11] = Hepatitis C virus, HCV replicon, Huh 7 Clone B cells

T1 sequence (P00747 581-810 limits assumed): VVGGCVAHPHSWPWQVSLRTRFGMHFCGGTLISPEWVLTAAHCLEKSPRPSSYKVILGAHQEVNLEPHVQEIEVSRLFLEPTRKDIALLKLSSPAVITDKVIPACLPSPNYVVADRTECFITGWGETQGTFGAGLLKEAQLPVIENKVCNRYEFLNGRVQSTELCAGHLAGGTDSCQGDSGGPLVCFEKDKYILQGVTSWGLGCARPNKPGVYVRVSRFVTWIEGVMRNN
T1 sequence (P00747 97-580 partner limits assumed): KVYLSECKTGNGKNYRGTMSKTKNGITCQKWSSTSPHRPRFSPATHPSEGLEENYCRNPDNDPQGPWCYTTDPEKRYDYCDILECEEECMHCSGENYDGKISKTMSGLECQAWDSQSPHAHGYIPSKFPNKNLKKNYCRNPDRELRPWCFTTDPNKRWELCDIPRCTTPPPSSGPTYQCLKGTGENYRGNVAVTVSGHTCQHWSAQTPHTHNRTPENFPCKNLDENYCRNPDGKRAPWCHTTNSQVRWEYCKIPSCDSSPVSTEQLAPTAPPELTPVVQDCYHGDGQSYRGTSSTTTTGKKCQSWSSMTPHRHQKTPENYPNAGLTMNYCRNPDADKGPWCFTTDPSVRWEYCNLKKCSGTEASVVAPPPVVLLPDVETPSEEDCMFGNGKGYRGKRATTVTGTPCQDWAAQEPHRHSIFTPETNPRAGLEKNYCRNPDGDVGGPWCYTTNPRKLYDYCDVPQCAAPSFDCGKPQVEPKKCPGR

Compound: C=C[C@@H]1C[C@]1(NC(=O)[C@@H]1C[C@@H](OC(=O)N2Cc3cccc(F)c3C2)CN1C(=O)[C@@H](NC(=O)OC(C)(C)C)C(C)(C)C)C(=O)NS(=O)(=O)C1CC1 [Compound 10]
- IC50 (Plasmin): > 100000 nM
- EC50 [1]: 40 nM
- EC90 ([1]; D168V, read-out: Anti-HCV protease activity EC90): 630 nM
- Fold Increase of EC50 [2]: 8.1
- Fold Increase of EC90 [2]: 21.1
- IC50 (Kallikrein): 47000 nM
- IC50 (Chymase): > 100000 nM
- DCt HCV ([3]; Conc 0.01 μM): 1.16
- HCV (% inhibition of replicon RNA) ([3]; Conc 0.01 μM): 54.99
- DCt HCV ([3]; Conc 0.03 μM): 3.29
- HCV (% inhibition of replicon RNA) ([3]; Conc 0.03 μM): 89.67
- DCt HCV ([3]; Conc 0.1 μM): 6.05
- HCV (% inhibition of replicon RNA) ([3]; Conc 0.1 μM): 98.47
- DCt HCV ([3]; Conc 0.3 μM): 8.72
- HCV (% inhibition of replicon RNA) ([3]; Conc 0.3 μM): 99.76
- EC50 [3, 11]: 10 nM
- EC90 [3, 11]: 30 nM
- Fold Increase of EC50 [4]: 1.6
- Fold Increase of EC90 [4]: 2.9
- EC50 [5]: 8 nM
- EC90 ([5]; A156S, read-out: Anti-HCV protease activity EC90): 85 nM
- IC50 (Thrombin): > 100000 nM
- Fold Increase of EC50 [6]: 6.7
- Fold Increase of EC90 [6]: 4.4
- EC50 [7]: 33 nM
- EC90 ([7]; A156T, read-out: Anti-HCV protease activity EC90): 130 nM
- IC50 [8]: > 100000 nM
- EC50 [9]: 70 nM
- EC90 ([9]; T54A, read-out: Anti-HCV protease activity EC90): 850 nM
- Fold Increase of EC50 [10]: 15.0
- Fold Increase of EC90 [10]: 28.5
